Results taken from US20240424134A1, “PEPTIDE HAVING INDEPENDENTLY STABILIZED HYDROPHOBIC ALPHA HELIX, PEPTIDE COMPLEX COMPRISING SAME AND USES THEREOF” (UIF (University Industry Foundation), Yonsei University, priority 2022, published 2024).
Entries after “also recorded” stand apart in the source; their conditions may differ. Non-standard residues stand in square brackets, D forms with d. Primed or numbered codes have the meaning given here. No end group written: not given here. PEG8′ = not defined here; Aib = CC(C)(N)C(=O)O

How the values were obtained:
Assay type in all cases: physicochemical
[1] = CD (circular dichroism) spectroscopy of α-helix structure; conditions: for θ222 nm/θ208 nm ratio: Table 11, peptide complexes of Examples 37-97; for [6]222/[θ]208 ratio: before magnetic field (CD), 20 μM in distilled water
Protocol: To evaluate the structures of a linear plasmid DNA and peptides, CD spectra were analyzed using a Chirascan CD spectrometer (Applied Photophysics, UK). […] The final concentration of the linear plasmid DNA was 30 ng/μL. All the samples were dissolved in H2O. For the formation of the artificial chromosome, a mixture of the peptide and the DNA was incubated for 12 days or longer. Scanning was performed using a 2-mm path-length cuvette. Each scan was repeated three times and averaged. MRE (mean residue ellipticity) was calculated based on the number of amino acid residues.
CD (circular dichroism) spectroscopy was performed as follows.
The CD spectra were analyzed using a Chirascan CD spectrometer (Applied Photophysics, UK). […] All the samples were dissolved in H2O. Each scan was repeated three times using a 2-mm path-length cuvette and averaged. MRE (mean residue ellipticity) was calculated based on the number of amino acid residues.

[2] = NMR residual dipolar couplings (RDC) under magnetic field; conditions: difference of 21.14 T and 16.45 T; 21 residues of α10; methanol-d3/chloroform-d
Protocol: ^1H NMR and ^2D ^1H-^15N IPAP-HSQC (in-phase/anti-phase heteronuclear single quantum coherence) NMR spectra were acquired at 298 K using a Bruker AVANCE IV 900 MHz spectrometer and a BrukerAVANCE Ill HD 700 MHz spectrometer, both equipped with cryogenic probes. The NMR sample of PEG30-α10-PEG30 was dissolved in methanol-d3/chloroform-d (1:1) containing 0.05% TFA at a concentration of 4.26 mM. The acquisition parameters of IPAP were 2048 t2×1024 t1 points, 8 scans, 0.2 second recycle delay, 14 ppm spectral width for ^1H and 26 ppm spectral width for ^15N. The acquired data were split into two data sets, IP and AP, using a TopSpin software (Bruker, Germany). […]
Anisotropic diamagnetic molecules placed in an isotropic solution are aligned when a magnetic field is applied. The behavior of the peptide according to the present disclosure under a magnetic field was analyzed. For this, RDCs (residual dipolar couplings) between ^1H-^15N amide pairs (^1DNH) were measured by NMR (nuclear magnetic resonance) at 16.45 T (700.400 MHz) and 21.14 T (900.230 MHz). […]
Specifically, ^1H NMR and ^2D ^1H-^15N IPAP-HSQC (in-phase/anti-phase heteronuclear single quantum coherence) NMR spectra were analyzed at 298 K using a BrukerAVANCE IV 900 MHz spectrometer and a BrukerAVANCE Ill HD 700 MHz spectrometer equipped with cryogenic probes. […] Peak positions were analyzed using the NMRFAM-SPARKY software.

[3] = AFM analysis of self-assembled peptide complexes; conditions: for Average diameter (nm) / AFM morphology: Table 12, self-assembled structure; for AFM morphology: 25 μM in distilled water
Protocol: AFM was performed using an NX10 system (Park Systems, Korea) in a non-contact mode with PPP-NCHR AFM probes (Nanosensors, Switzerland). The DNA concentration ranged from 1 to 30 ng/μL and the peptide concentration ranged from 1 to 32 μM (in H2O). 2 μL of the sample solution was cast onto a freshly cleaved mica surface and dried. The data obtained by the SmartScan program (Park Systems, Korea) was analyzed using the XEI program (Park Systems, Korea).
The CD spectroscopy was performed in the same manner as in Test Example 2 and the AFM was performed using the NX10 system (Park Systems, Korea) in a non-contact mode with PPP-NCHR AFM probes (Nanosensors, Switzerland). The peptide complex concentration ranged from 1 to 32 μM (in H2O). 2 μL of the sample solution was cast onto a freshly cleaved mica surface and dried. The data obtained by the SmartScan program (Park Systems, Korea) were analyzed using the XEI program (Park Systems, Korea).
The peptide complexes of Examples 37-40 were imaged by AFM. 25 μM of the peptide complex was dissolved in distilled water, sonicated for 5 minutes, incubated overnight and dropped on mica for measurement.

[4] = MCD (magnetic circular dichroism) under 1.6 T magnetic field; conditions: magnetic field of 1.6 T applied (MCD)
Protocol: (§1) MCD (magnetic circular dichroism) spectra were obtained using a Jasco-815 159-L spectrophotometer (Jasco, Japan). The concentration of the peptides was 20 μM in distilled water. Measurements were performed using a 2-mm path-length cuvette. The magnetic field of the permanent magnet in the MCD accessory (PM-491) was 1.6 T. Each scan was repeated three times and averaged.
as §1, with “peptide complex” for “peptides”
MCD (magnetic circular dichroism) analysis was performed to investigate whether the helical stability of the αm peptide in the peptide complex according to the present disclosure is affected by the magnetic field. The peptide complexes of Examples 47 and 99 have partially stable α-helices. When a magnetic field of 1.6 T was applied to the peptide complexes of Examples 47 and 99 (FIGS. 44d, 44e), the contents of α-helices, i.e. the [θ]222/[6]208 ratios, were increased in both molecules. […]

[5] = AFM of self-assembly with or without magnetic field
Protocol: AFM was performed using the NX10 system (Park Systems, Korea) in a non-contact mode with PPP-NCHR AFM probes (Nanosensors, Switzerland). The peptide complex (specimen) dispersed in an aqueous solvent was placed between neodymium magnets and measurements were compared before and after the application of a magnetic field. The magnetic field intensity was measured using a Model 450 gaussmeter (Lake Shore Cryotronics, USA).
It was confirmed that the peptide complex according to the present disclosure is highly sensitive to a magnetic field and the α-helix structure can be controlled with a magnetic field. It was also investigated whether the self-assembly process of the peptide complex is affected by a magnetic field. The peptide complexes of Examples 51 and 99 were dissolved in aqueous solvents to induce self-assembly. The aqueous solvents were sonicated to prevent aggregation for clear observation. The aqueous solvent was placed in the equipment shown in FIG. 44f and measured by AFM after incubation overnight. The AFM measurement was also made before the treatment for comparison before and after the application of the magnetic field.

[6] = Table 9, linear and cyclic αm-PEG10 peptide complexes, in H2O
[7] = in the absence of the magnetic field

| Substance | Average diameter (nm) [3] | AFM morphology [3] | θ222 nm/θ208 nm ratio [1] | other results |
| --- | --- | --- | --- | --- |
| (PEG10)3AUAUAUAUAUAUAUAUAUAUA(PEG10)3 [Example 128] |  |  |  | [θ]222/[θ]208 ([1]; Table 14, coil-rod-coil peptide complexes): 1.15; average RDC value (1DNH, exp) [2]: 2.007 Hz |
| Example 40: peptide complex (Wαm-RGD), SEQ ID NO 40 (AXAXAXAXAXAXAXAXAXAXAGRGDRGDG; RGD peptides; SITE 2 2-aminoisobutyric acid; SITE 4 2-aminoisobutyric acid; SITE 6 2-aminoisobutyric acid; SITE 8 2-aminoisobutyric acid; SITE 10 2-aminoisobutyric acid; SITE 12 2-aminoisobutyric acid; SITE 14 2-aminoisobutyric acid; SITE 16 2-aminoisobutyric acid; SITE 18 2-aminoisobutyric acid; SITE 20 2-aminoisobutyric acid) | 20-30 nm | Micelle | 0.99 | average diameter ([3]; AFM): 20 nm; self-assembly behavior in an aqueous solvent ([3]; AFM): self-assembled into spherical particles such as micelles; also recorded: micelle particles; length of micelle particles ([3]; AFM, FIG. 80): 7.2-12.4 nm; α-helix structure (in words) ([1]; from CD spectra): most perfect α-helix structure |
| Example 41: peptide complex (Wαm-RGD, Wαm-GS), SEQ ID NO 41 (A[Aib]A[Aib]A[Aib]A[Aib]A[Aib]A[Aib]A[Aib]A[Aib]A[Aib]A[Aib]AGRGDRGDRGDG) | 20-40 nm | Micelle | 0.91 |  |
| RAUAUAUAUA(PEG8)2 (RA[Aib]A[Aib]A[Aib]A[Aib]A-{PEG8′-PEG8′-NH2}) [Example 58] |  | Not assembled | 0.36 |  |
| RAUAUAUAUAUAUAUA(PEG8)2 [Example 59] | 160-410 nm | Vesicle | 0.77 |  |
| RAUAUAUAUAUAUAUAUAUAUAGRGDRGDRGDG [Example 66] | 20-30 nm | Micelle | 0.91 |  |
| RAUAUAUAUAUAUAUAUAUAUARGDRGDRGD [Example 64] | 30-40 nm | Micelle | 1.1 |  |
| RAUAUAUAUAUAUAUAUAUAUARGDRGDRGDRGD [Example 65] | 20 nm | Micelle | 0.94 |  |
| RGDRGDAUAUAUAUAUAUAUAUAUAUAR [Example 70] | 50 nm | Vesicle | 1.14 |  |
| RGDRGDRGDAUAUAUAUAUAUAUAUAUAUAR [Example 71] | 50-100 nm | Vesicle | 1.12 |  |
| RRAUAUAUAUAUAUAUAUAUAUA(PEG8)2 [Example 61] | 90-250 nm | Vesicle | 1.13 |  |
| RRAUAUAUAUAUAUAUAUAUAUAGRGDRGDRGDG (RRA[Aib]A[Aib]A[Aib]A[Aib]A[Aib]A[Aib]A[Aib]A[Aib]A[Aib]A[Aib]AGRGDRGDRGDG) [Example 68] | 40-110 nm | Vesicle | 0.89 |  |
| RRRAUAUAUAUAUAUAUAUAUAUA(PEG8)2 [Example 62] | 110-150 nm | Vesicle | 1.08 |  |
| RRRAUAUAUAUAUAUAUAUAUAUAGRGDRGDRGDG (RRRA[Aib]A[Aib]A[Aib]A[Aib]A[Aib]A[Aib]A[Aib]A[Aib]A[Aib]A[Aib]AGRGDRGDRGDG) [Example 69] | 40-260 nm | Vesicle | 0.88 |  |
| RRRRAUAUAUAUAUAUAUAUAUAUA(PEG8)2 (RRRRAXAXAXAXAXAXAXAXAXAXA; (PEG8)2 C-terminal; SITE 6 2-aminoisobutyric acid; SITE 8 2-aminoisobutyric acid; SITE 10 2-aminoisobutyric acid; SITE 12 2-aminoisobutyric acid; SITE 14 2-aminoisobutyric acid; SITE 16 2-aminoisobutyric acid; SITE 18 2-aminoisobutyric acid; SITE 20 2-aminoisobutyric acid; SITE 22 2-aminoisobutyric acid; SITE 24 2-aminoisobutyric acid) [Example 63] | 20-50 nm | Micelle | 1.03 | self-assembly behavior in an aqueous solvent ([3]; AFM): self-assembles into spherical particles |
| WAUAUAUAUAU(PEG2)5 [Example 47] |  |  | 0.84 | [6]222/[θ]208 ratio [4]: 0.91; [θ]222/[θ]208 [1, 6]: 0.84; [6]222/[θ]208 ratio [1]: 0.86; self-assembled structure [5, 7]: highly uniform micelle-like spherical self-assembled structures; self-assembled structure ([5]; magnetic field (0.07 T) applied): anisotropic and unique planar nanostructures |
| WAUAUAUAUAU(PEG2)5 [Example 99] |  |  |  | [6]222/[θ]208 ratio [4]: 1.01; [θ]222/[θ]208 [1, 6]: 0.93; [θ]222/[θ]208 ([1]; Table 13, cyclic peptide complexes): 0.93; [6]222/[θ]208 ratio [1]: 0.89; self-assembled structure [5, 7]: vesicle-like spherical self-assembled structures; self-assembled structure ([5]; magnetic field (0.25 T) applied): cruciform anisotropic nanostructures |
